From patent US7601688B2, “Methods of reducing hypoglycemic episodes in the treatment of diabetes mellitus” (Biocon Limited, priority 2001, dated 2009)

How the values were obtained:
[1] = in vivo
Description: Study Objectives: To evaluate whether HIM2 doses, when titrated, are able to maintain 2-hour post-prandial blood glucose levels consistent with the pre-study range between 80-250 mg/dL as compared to insulin lispro and to evaluate the safety profile for HIM2. Patient Population: Adult patients with type 1 diabetes participated in the study. […] Design and Methods: A multicenter, dose titration, randomized, insulin lispro controlled, parallel, open-label study was conducted. A 2-day inpatient period was provided to establish optimal basal rate. A 5-7 day run-in period (maintained optimized basal rate; insulin requirements, episodes of hypoglycemia or hyperglycemia, dietary intake and physical activity recorded) was provided. A 3-day inpatient dosing period was performed. Carbohydrate intake was individualized (40% of total calories, equally divided among 4 meals during each study day). Basal insulin (CSII) was unchanged throughout the 3-day dosing period. Initial Doses: HIM2 0.25 mg/kg (7.2 U/kg; 1 mg of insulin=28.7 units of insulin), p.o., in a formulation shown in Table 1, 10 minutes prior to meal, HIM2 0.125 mg/kg (3.6 U/kg; 1 mg of insulin=28.7 units of insulin), p.o., in a formulation shown in Table 1, 120 minutes post meal, and Insulin lispro (commercially available from Eli Lilly & Co., Indianapolis, Ind.) (hereinafter “Lispro”), 0.1 U/kg (0.003 mg/kg; 1 mg of insulin=28.7 units of insulin), s.c., 15 minutes prior to meal. Doses were adjusted as necessary with the next scheduled dose according to the dose titration rules described in Table 2; however, no dose titration was allowed during study day 3.
Assays: Plasma glucose: glucose oxidase-based enzymatic assay. Plasma insulin: RIA method (Linco Research, St. Charles, Mo.). Efficacy Variables: The following variables were evaluated to determine efficacy of HIM2 compared to Lispro. (1) Percentage of patients able to maintain 2-hour postprandial blood glucose levels consistent with pre-study values between 80-250 mg/dL on Day 3 (HIM2 compared to insulin lispro). (2) Daily mean plasma glucose on Day 3. (3) Postprandial glucose at 2 hours during Day 3. (4) Number of rescue interventions (hypoglycemia). Safety Variables: Adverse events, vital signs, clinical chemistry, hematology, urinalysis, and ECG monitoring. Data Analysis: A comparison of proportion of patients within target glucose range (80-250 mg/dL) was analyzed. The daily mean plasma glucose AUC was analyzed using a t-test. The Day 3-2 hour post-prandial glucose was analyzed using a t-test. Comparison of rates for hypoglycemic events was analyzed using glucose 50-60 mg/dL, glucose ≦50 mg/mL, and number of rescue interventions. Demographics: A total of 31 patients were enrolled and analyzed in this study (15 M/16 F).

[2] = Dose titration study of oral HIM2 vs. insulin lispro: glucodynamics; type: in vivo, human; settings: adult type 1 diabetes patients; for Day 3 - 2 Hour Post-prandial Glucose, Breakfast (Mean ± SEM) / Day 3 - 2 Hour Post-prandial Glucose, Dinner (Mean ± SEM) / Day 3 - 2 Hour Post-prandial Glucose, Evening Snack (Mean ± SEM) / Day 3 - 2 Hour Post-prandial Glucose, Lunch (Mean ± SEM): basal CSII, HIM2 p.o., Lispro s.c., titrated doses; for Day 3 - 2 Hour Post-prandial Glucose, Breakfast (Mean ± SEM): after breakfast, p = 0.28; for Day 3 - 2 Hour Post-prandial Glucose, Dinner (Mean ± SEM): after dinner, p = 0.07; for Day 3 - 2 Hour Post-prandial Glucose, Evening Snack (Mean ± SEM): after evening snack, p = 0.24; for Day 3 - 2 Hour Post-prandial Glucose, Lunch (Mean ± SEM): after lunch, p = 0.29; for Day 3 - Daily Mean (±SEM) Plasma Glucose AUC: total 24-hour AUC divided by 1440 (time-adjusted), p = 0.46; for Patients with average 2-hour post-prandial glucose levels consistent with pre-study values (range 80-250 mg/dL): Fisher's exact test p=0.42
Description: A 3-day inpatient dosing period was performed.
Assays: Plasma glucose: glucose oxidase-based enzymatic assay. Plasma insulin: RIA method (Linco Research, St. Charles, Mo.). […] (2) Daily mean plasma glucose on Day 3. (3) Postprandial glucose at 2 hours during Day 3. (4) Number of rescue interventions (hypoglycemia).

Substance: Lys^B29-Hexyl-PEG7-Oligomer-Conjugated Insulin [HIM2]
- Documented serious adverse event for hypoglycemia [1]: One
- Hypoglycemic events that required rescue intervention [1]: significantly lower
- Number and frequency of gastrointestinal side effects (primarily unpleasant taste and diarrhea) [1]: occurred more frequently
- Number of hypoglycemic events (overall assessment) [1]: trend toward fewer events
- Day 3 - 2 Hour Post-prandial Glucose, Breakfast (Mean ± SEM) [2]: 192.3 ± 19.4
- Day 3 - 2 Hour Post-prandial Glucose, Dinner (Mean ± SEM) [2]: 249.0 ± 19.3
- Day 3 - 2 Hour Post-prandial Glucose, Evening Snack (Mean ± SEM) [2]: 231.4 ± 18.4
- Day 3 - 2 Hour Post-prandial Glucose, Lunch (Mean ± SEM) [2]: 232.9 ± 21.0
- Day 3 - Daily Mean (±SEM) Plasma Glucose AUC [2]: 182.0 ± 10.0 mg/dL
- Patients with average 2-hour post-prandial glucose levels consistent with pre-study values (range 80-250 mg/dL) [2]: 63%

Substance: Insulin lispro [reference compound]
- Day 3 - 2 Hour Post-prandial Glucose, Breakfast (Mean ± SEM) [2]: 158.2 ± 24.3
- Day 3 - 2 Hour Post-prandial Glucose, Dinner (Mean ± SEM) [2]: 195.3 ± 20.6
- Day 3 - 2 Hour Post-prandial Glucose, Evening Snack (Mean ± SEM) [2]: 197.9 ± 20.4
- Day 3 - 2 Hour Post-prandial Glucose, Lunch (Mean ± SEM) [2]: 202.6 ± 16.1
- Day 3 - Daily Mean (±SEM) Plasma Glucose AUC [2]: 170.6 ± 11.8 mg/dL
- Patients with average 2-hour post-prandial glucose levels consistent with pre-study values (range 80-250 mg/dL) [2]: 83%
